The NIST ThermoML archive (doi:10.1016/j.jct.2017.09.007)
± gives the expanded uncertainty stated by the source.

Legend:
[1] = molar heat capacity at constant pressure; details: 298.15 K, 100 kPa, Small sample (50 mg) DSC
[2] = Molar enthalpy of transition or fusion; details: Crystal; DSC
[3] = Crystal; DTA

## CCOC(=O)c1cccc(O)c1 [ethyl 3-hydroxybenzoate]
[1]; Crystal
  molar heat capacity at constant pressure: 217.22 ± 3.4 J/K/mol
[2]
  Molar enthalpy of transition or fusion: 25.8 ± 0.61 kJ/mol
[3]
  Normal melting temperature: 72.23 ± 0.46 °C

## CCOC(=O)c1ccccc1O [ethyl 2-hydroxybenzoate]
[1]; Liquid
  molar heat capacity at constant pressure: 283.07 ± 4.4 J/K/mol
[2]
  Molar enthalpy of transition or fusion: 24.2 ± 0.61 kJ/mol
[3]
  Normal melting temperature: 1.33 ± 0.53 °C

## CCOC(=O)c1ccc(O)cc1 [ethyl 4-hydroxybenzoate]
[1]; Crystal
  molar heat capacity at constant pressure: 233.93 ± 3.6 J/K/mol
[2]
  Molar enthalpy of transition or fusion: 27.5 ± 0.63 kJ/mol
[3]
  Normal melting temperature: 115.70 ± 0.45 °C
